Experimental data: patent EP0227593A1, “Use of chelating agents” (THE HOSPITAL FOR SICK CHILDREN, priority 1985, dated 1987)

What was measured:
bone marrow cells = assay: Surface marker analysis by immunofluorescence on bone marrow cells at conclusion of the 20-day treatment; format: in vivo, human; settings: conclusion of 20-day treatment course
Procedure: (§1) Cell Culture Procedure: 2 x 10⁵ T-depleted cells were incubated with 40 % RPMI-methylcellulose, 20 % PHA-LCM, 10 % FCS, irradiated feeder cells (10⁵/dish), 16.6 % RPMI in 35 mm Petri dishes. The culture dishes were placed into a specialized modular incubator chamber (Billups-Rosenberg, Del Mar, CA) in a humidified atmosphere of 5 % O₂, 5 % CO₂ and balanced nitrogen for 3-6 days. After 2 days of incubation, the culture dishes were carefully examined. Colonies were counted at day 4. A cluster of more than 20 cells was defined as a colony. Individual colonies were plucked from the culture plates and smeared on microscope slides for further evaluation, using Wright stain and non-specific esterase staining. For control, 2 x 10⁵ irradiated feeder cells were cultured in the same assay system in each experiment to exclude their potential for colony formation Immunocytochemical Method: The cell surface antigens of air dried smears were detected using monoclonal antibodies and intestinal alkaline phosphatase, as previously described. This assay was performed to detect surface antigens on patients' PB and BM smears and colonies plucked from cultures. The slides were counter- stained in hematoxylin for light microscopy and the presence of surface antigen was indicated as bright red granular cellular inclusions. Morphologic details were well preserved, and a very high degree of correlation between morphology and surface antigen expression was observed. The intensity of staining was defined as strong (+++), moderate (++) and weak (+). Immunofluorescence Method: The cell surface phenotype was determined by indirect cell-surface fluorescence: A fluorescein-conjugated goat anti-mouse IgG (FAb')₂ was used as second antibody. The labelling was performed at room temperature in the presence of 0.2 % sodium azide. The percentage of cells with surface fluorescence was determined by counting cells stained in three replicate wells using an inverted phase-fluorescent microscope. Monoclonal Antibodies: The following monoclonal antibodies were used in these studies: anti-OKIa (Ortho Diagnostic Systems Inc. Raritan, NJ) to detect HLA-D framework antigen, anti-MY-7, anti-Mol and anti-MY-4 (coulter Immunology) to identify myelomonocytic markers, anti-Ig. anti-BA1, anti-BA2, anti-B1, and anti-B4 (Becton-Dickinson) to recognize cells of the B-cell lineage, anti-J5 (Coulter Immunology) to recognize cells bearing common ALL (CALLA) antigen and anti-Leu-1 and anti-Leu-4 (Coulter Immunology) to recognize cells of the T-cell lineage.
Immunologic surface markers were determined by immunofluorescence before and at the conclusion of the 20-day treatment course on bone marrow cells.

[1] = tested on: PB leukemia cell colonies; assay: Surface marker analysis of leukemia cell colonies grown with deferoxamine (immunocytochemical assay); format: cell-based, human; parameters: key to Ia intensity of staining / B4 intensity of staining / OKM1 intensity of staining / MY-4 intensity of staining: strong (+++); moderate (++); weak (+); settings: colonies from cultures containing 2.5 µM deferoxamine
Procedure: as §1
DFO and Blast Cell Differentiation: Individual blast colonies from the culture plates containing DFO 2.5 µM were characterized (Table 2). Compared to colonies grown without exposure to DFO, a marked change in cell surface antigen expression was observed.
PB leukemia cell colonies were plucked at random from cultures containing 2.5 µM deferoxamine compared to cultures without deferoxamine using the immunocytochemical assay.

[2] = tested on: peripheral blood blast cells; assay: Surface marker analysis on PB smears before and after 48 hours of deferoxamine treatment (immunocytochemical method); format: in vivo, human; parameters: key to Ia intensity of staining / OKM1 intensity of staining / MY-4 intensity of staining: strong (+++); moderate (++); weak (+); settings: PB smears after 48 hours of deferoxamine treatment
Procedure: as §1
DFO and Blast Cell Differentiation: After 48 hours of continuous infusion of DFO as a single agent, striking changes in blast cell surface markers were detected immunocytochemically (Table 3). Prior to treatment, no blasts expressed OKM1 antigen, and only 8 % weakly expressed MY-4. After 48 hours, these two antigens were strongly detected in peripheral blood blast cells. Concomitantly with DFO therapy, there was a sharp decline from 37 % to 0 % of cells bearing B₄ antigen.
Immunologic surface markers were dermined before and after 48 hours of deferoxamine treatment on PB smears using the immunocytochemical method

[3] = tested on: peripheral blood blast cell numbers; assay: 20-day experimental treatment protocol in a leukemia patient: WBC and blast counts; format: in vivo, human
Procedure: With informed consent and following an approval by the Human Experimentation Committee of our institution, an experimental protocol was initiated: DFO, dissolved in sterile water was given by continuous infusion of 10 mg/kg/hour; cytosine arabinoside (Ara-C) dissolved in saline was given by i.v. push, 5 mg/kg/dose. When used consecutively, DFO was stopped 8-12 hours prior to cytosine arabinoside.
Deferoxamine (DFO) was given by continuous infusion 10 mg/kg/hr Cytosine-arabinoside (Ara-C) was given by i.v. push, 5 mg/kg/dose.

L-1210 tumour cells = assay: L-1210 tumour growth in mice; format: in vivo; settings: day 8
Procedure: One hour prior to kill on day 8 the mice received one ip injection of 0.002 mCi of 3H-thymidine per g body weight. Cells were harvested from the peritoneal cavity, the volume of ascites measured and the cell counts determined in a coulter counter, after lysis of red cells with zap-oglobin, for calculation of total tumour cell numbers. Also, of each sample cell smears were done, Feulgen stained and autoradiographed, whereby the number and percentage of labelled cells was determined and used as a measure for proliferating cells.

[4] = Day 1, DFO continuous infusion 10 mg/kg/hr, 24 h
[5] = Day 3, after first 48 hours of DFO, Ara-C starts Day 3
[6] = DFO 400 mg/kg/d s.c. minipump from day 2, Ara-C 200 mg/kg once ip on day 6

CC(=O)N(O)CCCCCNC(=O)CCC(=O)N(O)CCCCCNC(=O)CCC(=O)N(O)CCCCCN [DFO, desferioxamine methanesulfonate]
% Positive Cells B4 (bone marrow cells): 10%
% Positive Cells BA-1 (bone marrow cells): 0%
% Positive Cells BA-2 (bone marrow cells): 0%
% Positive Cells Ia (bone marrow cells): 75%
% Positive Cells MY-4 (bone marrow cells): 20%
% Positive Cells MY-7 (bone marrow cells): 20%
% Positive Cells Mo1 (bone marrow cells): 20%
% Positive Cells sIg (bone marrow cells): 0%
B4 Positive [1]: 30%
B4 intensity of staining [1]: +++
CALLA Positive [1]: 0%
Ia Positive [1]: 80%
Ia intensity of staining [1]: +++
Leu-1 Positive [1]: 0%
Leu-4 Positive [1]: 0%
MY-4 Positive [1]: 60%
MY-4 intensity of staining [1]: ++
OKM1 Positive [1]: > 90%
OKM1 intensity of staining [1]: +++
B4 positive cells [2]: 0%
CALLA positive cells [2]: 0%
Ia intensity of staining [2]: +++
Ia positive cells [2]: 80%
Leu-1 positive cells [2]: 0%
Leu-4 positive cells [2]: 0%
MY-4 intensity of staining [2]: +++
MY-4 positive cells [2]: 60%
OKM1 intensity of staining [2]: +++
OKM1 positive cells [2]: 40%
Blasts [3, 4]: 4.22e+10 L⁻¹
WBC [3, 4]: 6.25e+10 L⁻¹
Blasts [3, 5]: 4.09e+10 L⁻¹
WBC [3, 5]: 6.39e+10 L⁻¹
proportions of proliferating cells (L-1210 tumour cells; 3H-thymidine labelled cells, same doses as Table 12): 28 % ± 8%
Number of cells in the peritoneal cavity % of control (L-1210 tumour cells; [6]): 95%
Number of cells in the peritoneal cavity x̄ ± SD (L-1210 tumour cells; [6]): 3.49 ± 1.75 10^8
Number of proliferating cells in peritoneal cavity % of control (L-1210 tumour cells; [6]): 80%
Number of proliferating cells in peritoneal cavity x̄ ± SD (L-1210 tumour cells; [6]): 0.98 ± 0.64 10^8
